This test concerns the target Purified human HSD1 (Homo sapiens, UniProt P28845). Briefly: In vitro inhibition of 11β-HSD1, enzyme assay (time-resolved fluorescence). It counts as biochemical. The note with it: purified human HSD1, cortisone substrate, 37° C. for 30 min. As to the method:
Purified human HSD1 was diluted in 50 mM Tris-HCl, 100 mM NaCl, 0.1 mg/mL BSA, 0.02% Lubrol, 20 mM MgCl2, 10 mM glucose 6-phosphate, 0.4 mM NADPH, 60 U/mL glucose 6-phosphate dehydrogenase to a concentration of 1.5 μg/mL (Enzyme Solution). Cortisone (100 μM) in DMSO was diluted to 1 μM with 50 mM Tris-HCl, 100 mM NaCl (Substrate Solution). Test compounds (40 μM) in DMSO were diluted 3 fold in series in DMSO and further diluted 20 fold in Substrate Solution. Enzyme Solution (10 μL/well) was added into 384 well microtiter plates followed by diluted compound solutions (10 μL/well) and mixed well. Samples were then incubated at 37° C. for 30 min. EDTA/biotin-cortisol solution (10 μL/well) in 28 mM EDTA, 100 nM biotin-cortisol, 50 mM Tris-HCl, 100 mM NaCl was then added followed by 5 μL/well of anti-cortisol antibody (3.2 μg/mL) in 50 mM Tris-HCl, 100 mM NaCl, 0.1 mg/mL BSA and the solution was incubated at 37° C. for 30 min. Five μL per well of Eu-conjugated anti-mouse IgG (16 nM) and APC-conjugated streptavidin (160 nM) in 50 mM Tris-HCl, 100 mM NaCl, 0.1 mg/mL BSA was added and the solution was incubated at room temperature for 2 hours. Signals were quantitated by reading time-resolved fluorescence on a Victor 5 reader (Wallace).
Percent inhibition of HSD1 activity by an agent at various concentrations was calculated by the following formula: % Inhibition=100*[1−(Fs−Fb)/(Ft−Fb)], wherein: • Fs is the fluorescence signal of the sample which included the agent, • Fb is the fluorescence signal in the absence of HSD1 and agent, • Ft is the fluorescence signal in the presence of HSD1, but no agent.
The inhibitory activities of test compounds were determined by the IC50s, or the concentration of compound that gave 50% inhibition.

Sequence of Purified human HSD1 (P28845 whole entry): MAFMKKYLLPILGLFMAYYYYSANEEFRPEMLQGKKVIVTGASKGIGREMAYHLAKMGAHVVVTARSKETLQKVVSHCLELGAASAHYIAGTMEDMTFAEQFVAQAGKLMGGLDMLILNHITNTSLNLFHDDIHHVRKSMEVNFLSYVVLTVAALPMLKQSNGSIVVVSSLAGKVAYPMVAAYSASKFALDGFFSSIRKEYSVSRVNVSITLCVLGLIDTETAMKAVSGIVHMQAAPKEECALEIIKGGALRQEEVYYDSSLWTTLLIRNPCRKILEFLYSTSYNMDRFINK

Usually IC50 stands for the concentration needed to halve the response being measured. Low readings indicate inhibition by little substance, high ones a need for much substance. Regarding `O=C(c1csc(-c2ccccc2Cl)n1)N1CCCCCCC1` [Example 10, Azocan-1-yl-[2-(2-chloro-phenyl)-thiazol-4-yl]-methanone], it took 50 nM to reach half-maximal inhibition (IC50).
The result for `COc1ccc(-c2nc(C(=O)N3CCCC4CCCCC43)cs2)cc1` (stereo not drawn) [Example 17, [2-(4-Methoxy-phenyl)-thiazol-4-yl]-(octahydro-quinolin-1-yl)-methanone] reads 373 nM; that for `Cc1ccc(-c2nc(C(=O)N3CC(C)CC(C)C3)cs2)cc1` (stereo not drawn) [Example 33, (3,5-Dimethyl-piperidin-1-yl)-(2-p-tolyl-thiazol-4-yl)-methanone], 365 nM.
For the molecule `CCOc1cc(Cl)ccc1-c1nc(C(=O)N2CCCC3CCCCC32)cs1` (stereo not drawn) [Example 46, [2-(4-Chloro-2-ethoxy-phenyl)-thiazol-4-yl]-(octahydro-quinolin-1-yl)-methanone], the IC50 came to 102 nM.
`O=C(c1csc(-c2cccc(OCc3ccccc3)c2)n1)N1CCCC2CCCCC21` (stereo not drawn) [Example 61, [2-(3-Benzyloxy-phenyl)-thiazol-4-yl]-(octahydro-quinolin-1-yl)-methanone]: 457 nM corresponded to half-maximal inhibition (IC50).
For the molecule `O=C(c1csc(-c2cccc(Cl)c2Cl)n1)N1CCCC[C@H]1c1ccccn1` [Example 96, [2-(2,3-Dichloro-phenyl)-thiazol-4-yl]-(S)-3,4,5,6-tetrahydro-2H-[2,2′]bipyridinyl-1-yl-methanone], the IC50 stood at 40 nM.
Consider `C[C@@H]1CCC[C@H](C)N1C(=O)c1csc(-c2ccccc2Cl)n1` [Example 115, [2-(2-Chloro-phenyl)-thiazol-4-yl]-((2S,6R)-2,6-dimethyl-piperidin-1-yl)-methanone], for which the IC50 came to 340 nM.
Take `COc1cccc(Cl)c1-c1nc(C(=O)N2CCCC3CCCCC32)cs1` (stereo not drawn) [Example 117, [2-(2-Chloro-6-methoxy-phenyl)-thiazol-4-yl]-(octahydro-quinolin-1-yl)-methanone]: the IC50 was found to be 1500 nM.
In the case of `COc1ccccc1-c1nc(C(=O)N2CCCCC2C)cs1` (stereo not drawn) [Example 119, [2-(2-Methoxy-phenyl)-thiazol-4-yl]-(2-methyl-piperidin-1-yl)-methanone], the concentration for half-maximal inhibition (IC50) worked out at 730 nM.
As to `O=C(N[C@H]1CC[C@H](O)CC1)c1csc(-c2ccccc2Cl)n1` [Example 124, 2-(2-Chloro-phenyl)-thiazole-4-carboxylic acid (4-hydroxy-cyclohexyl)-amide], the IC50 was found to be 1900 nM.
The result for `CC(=O)c1ccccc1-c1nc(C(=O)NC2CCCCCC2)cs1` [Example 144, 2-(2-Acetyl-phenyl)-thiazole-4-carboxylic acid cycloheptyl amide] reads 32 nM.
As for `O=C(c1csc(-c2ccc(-c3ccccc3)cc2)n1)N1CCCC2CCCCC21` (stereo not drawn) [Example 180, (2-Biphenyl-4-yl-thiazol-4-yl)-(octahydro-quinolin-1-yl)-methanone], the figure is 930 nM.

The values are drawn from patent publication US7645773B2, “Thiazoles as inhibitors of 11β-hydroxysteroid dehydrogenase” (Hoffmann-La Roche Inc., priority 2006, dated 2010).
